Measurements reported in patent publication US20240025903A1, “Bicyclic Compounds and Uses Thereof for the Treatment of Diseases” (Athira Pharma, Inc., priority 2020, published 2024).
Where two headings read alike, the source gives them in different places.

Assays:
[1] = In vivo pharmacokinetics; design: species or system Sprague-Dawley rats; conditions: both sexes, Sprague-Dawley, rat; for Tmax: plasma; for AUC: dose-corrected plasma AUC; for Cmax: dose-corrected plasma Cmax
Experimental: Administration of exemplary compounds by selected routes followed by blood collection and compound quantification in plasma was used to determine the pharmacokinetic (PK) profile of the compounds. Compounds were administered to mixed-sex Sprague-Dawley rats of at least 250 grams by dissolving the test compound in DMSO and then diluting the compound into an appropriate vehicle, either saline or saline and poly-ethylene glycol. Dosing was accomplished by either tail vein puncture (IV) or oral gavage (PO), and animals were administered compound according to their weight at 1 mL/kg. At selected intervals following administration (10, 20, 40, 60, 120, and 360 minutes), blood was collected by tail vein blood draw. Whole blood was then processed by centrifugation to produce plasma. Compound content in plasma samples was quantified by LC-MS/MS and compared to an internal standard and standard curves to determine concentration accurately. Plasma concentrations were then averaged for each time point and plotted as a function of time. Area under the curve was calculated by integration of the curve, Cmax was the highest concentration achieved in plasma, and Tmax was determined by the timing of Cmax.

[2] = system: scopolamine-induced spatial memory deficit in rats; test: Scopolamine-induced spatial memory deficit in the Morris water maze (compounds 2a and 6a); format: in vivo; conditions: rat, scopolamine 3 mg/kg IP, escape latency over 8 days, post-test p-value
Experimental: Exemplary compounds 2a and 6a were evaluated for their ability to reverse chemically-induced spatial memory deficits in rats in the Morris water maze. The water maze consists of a large round tank (diameter 2.1 m) filled with 26-28° C. water to a depth of −30 cm and the water was clouded with white paint. A round platform (13 cm diameter) was fixed such that it rested 2-3 cm below the surface of the water. High-contrast visual cues were placed around the tank to aid spatial orientation of test animals. Testing consisted of placing an animal into the water facing the tank wall at one of three randomly assigned starting locations and allowing the animal to swim and search for the hidden platform for up to 120 seconds. The time taken for the animal to locate the platform was recorded as the escape latency. Animals were tested 5 times per day with a 30 second rest period between trials. Testing was completed for a total of 8 consecutive days.
(§1) Animals were divided into groups (N=8 per group) depending on treatment. Control animals received only empty vehicle. Scopolamine groups received 3 mg/kg scopolamine dissolved in sterile saline by intraperitoneal (IP) injection 30 minutes prior to testing. Test compound groups received test compound at various concentrations by oral gavage (PO) dissolved in 48% sterile saline, 50% polyethylene glycol (PEG-400), and 2% DMSO 40 minutes prior to testing. Escape latencies were recorded for each animal for 5 trials each day for 8 consecutive days. Changes in escape latency curves were statistically analyzed by 2-way ANOVA with Bonferoni post-test.

[3] = system: scopolamine-induced spatial memory deficit in rats; test: Scopolamine-induced spatial memory deficit in the Morris water maze (compound 1a); format: in vivo; conditions: rat, scopolamine 2 mg/kg IP, escape latency over 5 days, post-test p-value
Experimental: Exemplary compound 1a was evaluated for its ability to reverse chemically-induced spatial memory deficits in rats in the Morris water maze. The water maze consists of a large round tank (diameter 1.5 m) filled with 23-26° C. water to a depth of −30 cm and the water was clouded with white paint. A round platform was fixed such that it rested 2-3 cm below the surface of the water. High-contrast visual cues were placed around the tank to aid spatial orientation of test animals. Testing consisted of placing an animal into the water facing the tank wall at one of three randomly assigned starting locations and allowing the animal to swim and search for the hidden platform for up to 90 seconds. The time taken for the animal to locate the platform was recorded as the escape latency. Animals were tested 5 times per day with a 30 second rest period between trials. Testing was completed for a total of 5 consecutive days.
as §1, with “groups (N=12” for “groups (N=8”, “received 2” for “received 3”, “in 78%” for “in 48%”, “saline, 20%” for “saline, 50%”, “for 5” for “for 8”

[4] = IV (tail vein), read-out: TMAX IV
[5] = PO (oral gavage), read-out: TMAX PO
[6] = IV (tail vein), read-out: AUC IV
[7] = IV (tail vein), read-out: CMAX IV
[8] = PO (oral gavage), read-out: AUC PO
[9] = PO (oral gavage), read-out: CMAX PO

Tmax [1, 4]	Tmax [1, 5]	AUC [1, 6]	Cmax [1, 7]	AUC [1, 8]	Cmax [1, 9]	SMILES	Cognitive Improvement ([2]; 0.1 mg/kg PO)	Cognitive Improvement ([2]; 1 mg/kg PO)	Cognitive Improvement ([2]; 10 mg/kg PO)	Cognitive Improvement ([3]; 0.5 mg/kg PO)	Cognitive Improvement ([3]; 2 mg/kg PO)	Cognitive Improvement ([3]; 8 mg/kg PO)
< 30 min	30 to 60 min	0.1 to 0.999 µg·h/mL	0.1 to 0.999 µg/mL	0.001 to 0.1 µg·h/mL	0.001 to 0.1 µg/mL	CCC(C)CN1CC2N(Cc3ccc(C(F)(F)F)cc3)CCC(=O)N2[C@@H](C)C1=O (some centres unmarked) [Compound 5a]	–	–	–	–	–	–
< 30 min	> 60 min	1 to 3 µg·h/mL	1 to 3 µg/mL	1 to 3 µg·h/mL	0.1 to 0.999 µg/mL	CC1C(=O)N(CCC2CCC2)CC2N(C(=O)c3ccc(C(F)(F)F)cc3)CCC(=O)N12 (centres unmarked) [Compound 20]	–	–	–	–	–	–
< 30 min	30 to 60 min	1 to 3 µg·h/mL	1 to 3 µg/mL	0.1 to 0.999 µg·h/mL	0.1 to 0.999 µg/mL	CCC(C)CN1CC2N(C(=O)c3ccc(OC(F)F)cc3)CCC(=O)N2[C@@H](C)C1=O (some centres unmarked) [Compound 2a]	− (− indicates post-test p-value above 0.06)	+++ (+++ indicates post-test p-value below 0.01)	− (− indicates post-test p-value above 0.06)	–	–	–
< 30 min	< 30 min	1 to 3 µg·h/mL	0.1 to 0.999 µg/mL	0.1 to 0.999 µg·h/mL	0.1 to 0.999 µg/mL	CCC(C)CN1CC2N(C(=O)c3ccc(F)cc3)CCC(=O)N2C(C)C1=O (centres unmarked) [Compound 11, 1-(4-fluorobenzoyl)-6-methyl-8-(2-methylbutyl)hexahydro-4H-pyrazino[1,2-a]pyrimidine-4,7(6H)-dione]	–	–	–	–	–	–
< 30 min	> 60 min	0.1 to 0.999 µg·h/mL	0.1 to 0.999 µg/mL	0.1 to 0.999 µg·h/mL	0.001 to 0.1 µg/mL	CCC(C)CN1CC2N(C(=O)c3ccc(C(F)(F)F)c(Cl)c3)CCC(=O)N2C(C)C1=O (centres unmarked) [Compound 12, 1-(3-chloro-4-(trifluoromethyl)benzoyl)-6-methyl-8-(2-methylbutyl)hexahydro-4H-pyrazino[1,2-a]pyrimidine-4,7(6H)-dione]	–	–	–	–	–	–
< 30 min	30 to 60 min	> 3 µg·h/mL	> 3 µg/mL	0.001 to 0.1 µg·h/mL	0.001 to 0.1 µg/mL	CCC(C)CN1CC2N(Cc3ccc(O)nc3)CCC(=O)N2[C@@H](C)C1=O (some centres unmarked) [Compound 7a]	–	–	–	–	–	–
< 30 min	30 to 60 min	1 to 3 µg·h/mL	1 to 3 µg/mL	0.001 to 0.1 µg·h/mL	0.001 to 0.1 µg/mL	CCC(C)CN1CC2N(Cc3ccc(OC(F)F)cc3)CCC(=O)N2[C@@H](C)C1=O (some centres unmarked) [Compound 6a]	–	− (− indicates post-test p-value above 0.06)	++ (++ indicates post-test p-value between 0.05 and 0.01)	–	–	–
< 30 min	> 60 min	1 to 3 µg·h/mL	0.1 to 0.999 µg/mL	1 to 3 µg·h/mL	0.1 to 0.999 µg/mL	CC1C(=O)N(CC2CCC2)CC2N(C(=O)c3ccc(OC(F)F)cc3)CCC(=O)N12 (centres unmarked) [Compound 14]	–	–	–	–	–	–
< 30 min	30 to 60 min	0.1 to 0.999 µg·h/mL	1 to 3 µg/mL	0.1 to 0.999 µg·h/mL	0.001 to 0.1 µg/mL	CCC(C)CN1CC2N(C(=O)c3ccc(C(F)(F)F)cc3)CCC(=O)N2[C@@H](C)C1=O (some centres unmarked) [Compound 1a]	–	–	–	+ (+ indicates post-test p-value between 0.06 and 0.05)	− (− indicates post-test p-value above 0.06)	− (− indicates post-test p-value above 0.06)
< 30 min	30 to 60 min	1 to 3 µg·h/mL	0.1 to 0.999 µg/mL	0.1 to 0.999 µg·h/mL	0.1 to 0.999 µg/mL	C=CCCN1CC2N(C(=O)c3ccc(C(F)(F)F)cc3)CCC(=O)N2C(C)C1=O (centres unmarked) [Compound 22]	–	–	–	–	–	–
